Results on 22 compounds are retold here after patent publication US20260250251A1, “HETEROCYCLIC COMPOUNDS AS PI3Ka INHIBITORS” (Pikavation Therapeutics, Inc., priority 2022, published 2026).

Where only a bound is given, the exact number is not on record here.

In assay [1] the test system is SKBR3 (PIK3CA WT) cells, pSer473 AKT. Description: pS473 AKT assay in SKBR3 cells. Type of assay: cell-based. The following applies: Homo sapiens, SK-BR-3, treated 2 h, read-out: SKBR3_IC50. As to the method:
(§1) SKBR3 (PIK3CA WT), MCF7 (PIK3CA E545K), and T47D (PIK3CA H1047R) cells were cultured using 10-cm petri dishes with recommended medium. One day before the assay, cells were seeded in 96-well plates. After overnight incubation, cells were treated with different concentrations of PI3Kα inhibitors for 2 h. Cells were then fixed using 4% paraformaldehyde at room temperature for 20 min. Cells were aspirated with 4% paraformaldehyde, and washed using 1× regular phosphate buffered saline 3 times, 5 min each. Any residual phosphate buffered saline was aspirated and cells were blocked using 10% goat serum containing 1% bovine serum albumin and 0.3% Triton X-100 at room temperature for 1 h. Without any additional washing, primary antibodies (rabbit anti-pSer473 AKT) were diluted using blocking buffer and added at a final volume of 50 microliter per well. Assay plates with primary antibodies were maintained overnight at 4° C. Cells were washed using 1× regular phosphate buffered saline 3 times, 5 min each. After the final wash, cells were incubated with horseradish peroxidase-conjugated secondary antibodies (goat Anti-rabbit IgG) and diluted using the same blocking buffer at room temperature for 1 h. Cells were then washed thoroughly using 1× regular phosphate buffered saline 3 times, 5 min each, and any residual phosphate buffered saline was aspirated. Super-Signal ELISA Pico Chemiluminescent Substrate was then added at a final volume of 100 microliter per well. Plates were read on a i3x Multi-Mode Microplate Reader and IC50 values calculated using GraphPad Prism software.
(§2) Results of the assay described above are presented in Table A. “++++” indicates an IC50 less than 1000 nM; “+++” indicates an IC50 greater than or equal to 1000 nM but less than 5000 nM; “++” indicates an IC50 greater than or equal to 5000 nM but less than 10000 nM; and “+” indicates an IC50 greater than or equal to 10000 nM.

Assay [2] concerns T47D (PIK3CA H1047R) cells, pSer473 AKT. Description: pS473 AKT assay in T47D cells. Type of assay: cell-based. The conditions noted are these: Homo sapiens, treated 2 h, read-out: T47D_IC50. As to the method: as §1, §2

With `CCNC(=O)c1cc(NC(=O)c2cc(F)cc(C(F)(F)F)c2)c(Oc2cc(F)ccc2Cl)c2c(N)nn(C)c12` [Example 65, 3-Amino-4-(2-chloro-5-fluorophenoxy)-N-ethyl-5-(3-fluoro-5-(trifluoromethyl)benzamido)-1-methyl-1H-indazole-7-carboxamide], the IC50 in assay [1] and in assay [2] was under 1000 nM in each case.
In the case of `Nc1nn2c3c(cc(NC(=O)c4cc(F)cc(C(F)(F)F)c4)c(Oc4cc(F)ccc4Cl)c13)CCC2` [Example 22, N-(2-amino-3-(2-chloro-5-fluorophenoxy)-7,8-dihydro-6H-pyrazolo[4,5,1-ij]quinolin-4-yl)-3-fluoro-5-(trifluoromethyl)benzamide], the IC50 in assay [1] and in assay [2] was under 1000 nM each time.
As to `Cn1nc(N)c2c(Oc3cc(F)ccc3Cl)c(NC(=O)c3cc(F)cc(C(F)(F)F)c3)cc(C#CC3(C)COC3)c21` [Example 46, N-(3-Amino-4-(2-chloro-5-fluorophenoxy)-1-methyl-7-((3-methyloxetan-3-yl)ethynyl)-1H-indazol-5-yl)-3-fluoro-5-(trifluoromethyl)benzamide], the IC50 in assay [1] is 1000 to 5000 nM; in assay [2] it was under 1000 nM.
Turning to `Nc1n[nH]c2ccc(NC(=O)N3CC(O)(C(F)(F)F)c4cc(F)ccc43)c(Oc3cc(F)ccc3Cl)c12` (centres unmarked) [Example 19, N-(3-Amino-4-(2-chloro-5-fluorophenoxy)-1H-indazol-5-yl)-5-fluoro-3-hydroxy-3-(trifluoromethyl)indoline-1-carboxamide], the IC50 in assay [1] was 1000 to 5000 nM; in assay [2], under 1000 nM.
The matching figures for `Nc1n[nH]c2c(Br)cc(NC(=O)c3cc(F)cc(C(F)(F)F)c3)c(Oc3cc(F)ccc3Cl)c12` [Example 11, N-(3-Amino-7-bromo-4-(2-chloro-5-fluorophenoxy)-1H-indazol-5-yl)-3-fluoro-5-(trifluoromethyl)benzamide]: under 1000 nM and under 1000 nM.
The matching figures for `Nc1n[nH]c2ccc(NC(=O)c3cc(F)cc(C(F)(F)F)c3)c(Nc3cc(F)ccc3Cl)c12` [Example 4, N-(3-Amino-4-((2-chloro-5-fluorophenyl)amino)-1H-indazol-5-yl)-3-fluoro-5-(trifluoromethyl)benzamide]: 5000 to 10000 nM and under 1000 nM.
Taken in the same sequence, the figures for `NC(=O)Cn1nc(N)c2c(Oc3cc(F)ccc3Cl)c(NC(=O)c3cc(F)cc(C(F)(F)F)c3)cc(Br)c21` [Example 33, N-(3-Amino-1-(2-amino-2-oxoethyl)-7-bromo-4-(2-chloro-5-fluorophenoxy)-1H-indazol-5-yl)-3-fluoro-5-(trifluoromethyl)benzamide] were 1000 to 5000 nM and under 1000 nM.
As for `Cn1nc(N)c2c(Oc3cc(F)ccc3Cl)c(NC(=O)c3cc(F)cc(C(F)(F)F)c3)cc(/C=C/c3ccccn3)c21` [Example 76, (E)-N-(3-Amino-4-(2-chloro-5-fluorophenoxy)-1-methyl-7-(2-(pyridin-2-yl)vinyl)-1H-indazol-5-yl)-3-fluoro-5-(trifluoromethyl)benzamide], the figures for the IC50 in assay [1] and in assay [2] were 5000 to 10000 nM and under 1000 nM, respectively.
The matching figures for `Nc1nn(CCN2CCC2)c2c(Cl)cc(NC(=O)c3cc(F)cc(C(F)(F)F)c3)c(Oc3cc(F)ccc3Cl)c12` [Example 56, N-(3-Amino-1-(2-(azetidin-1-yl)ethyl)-7-chloro-4-(2-chloro-5-fluorophenoxy)-1H-indazol-5-yl)-3-fluoro-5-(trifluoromethyl)benzamide]: 1000 to 5000 nM and under 1000 nM.
The matching figures for `Nc1nn2c3c(cc(NC(=O)c4cc(F)cc(C(F)(F)F)c4)c(Oc4cc(F)ccc4Cl)c13)CN(C1CCC1)C2=O` [Example 72, N-(2-Amino-3-(2-chloro-5-fluorophenoxy)-7-cyclobutyl-8-oxo-7,8-dihydro-6H-pyrazolo[4,5,1-ij]quinazolin-4-yl)-3-fluoro-5-(trifluoromethyl)benzamide]: under 1000 nM and under 1000 nM.
Taken in the same sequence, the figures for `Nc1nn2c3c(cc(NC(=O)c4cc(F)cc(C(F)(F)F)c4)c(Oc4cc(F)ccc4Cl)c13)-c1ccccc1C2` [Example 70, N-(4-Amino-3-(2-chloro-5-fluorophenoxy)-7H-pyrazolo[4,5,1-de]phenanthridin-2-yl)-3-fluoro-5-(trifluoromethyl)benzamide] were at least 10000 nM and under 1000 nM.
Take `Cn1nc(N)c2c(Oc3cc(F)ccc3Cl)c(NC(=O)c3cc(F)cc(C(F)(F)F)c3)cc(C#CC3CCOCC3)c21` [Example 38, N-(3-Amino-4-(2-chloro-5-fluorophenoxy)-1-methyl-7-((tetrahydro-2H-pyran-4-yl)ethynyl)-1H-indazol-5-yl)-3-fluoro-5-(trifluoromethyl)benzamide]: the IC50 in assay [1] was 1000 to 5000 nM; in assay [2] it was under 1000 nM.
The matching figures for `Cn1nc(N)c2c(Oc3cc(F)ccc3Cl)c(NC(=O)c3cc(F)cc(C(F)(F)F)c3)cc(C#CC(C)(C)N)c21` [Example 40, N-(3-Amino-7-(3-amino-3-methylbut-1-yn-1-yl)-4-(2-chloro-5-fluorophenoxy)-1-methyl-1H-indazol-5-yl)-3-fluoro-5-(trifluoromethyl)benzamide]: under 1000 nM and under 1000 nM.
Taken in the same sequence, the figures for `Nc1nn2c(=O)c3c(c4cc(NC(=O)c5cc(F)cc(C(F)(F)F)c5)c(Oc5cc(F)ccc5Cl)c1c42)CCCC3` [Example 75, N-(4-Amino-3-(2-chloro-5-fluorophenoxy)-7-oxo-8,9,10,11-tetrahydro-7H-pyrazolo[4,5,1-de]phenanthridin-2-yl)-3-fluoro-5-(trifluoromethyl)benzamide] were under 1000 nM and under 1000 nM.
Turning to `Nc1n[nH]c2c(-c3cccnc3)cc(NC(=O)c3cc(F)cc(C(F)(F)F)c3)c(Oc3cc(F)ccc3Cl)c12` [Example 16, N-(3-Amino-4-(2-chloro-5-fluorophenoxy)-7-(pyridin-3-yl)-1H-indazol-5-yl)-3-fluoro-5-(trifluoromethyl)benzamide], the IC50 in assay [1] was 1000 to 5000 nM; in assay [2], under 1000 nM.
The matching figures for `Nc1n[nH]c2ccc(NC(=O)c3cc(F)cc(C(F)(F)F)c3)c(COc3cc(F)ccc3Cl)c12` [Example 6, N-(3-amino-4-((2-chloro-5-fluorophenoxy)methyl)-1H-indazol-5-yl)-3-fluoro-5-(trifluoromethyl)benzamide]: at least 10000 nM and 1000 to 5000 nM.
Regarding `Cn1cnc(C#Cc2cc(NC(=O)c3cc(F)cc(C(F)(F)F)c3)c(Oc3cc(F)ccc3Cl)c3c(N)nn(C)c23)c1` [Example 50, N-(3-Amino-4-(2-chloro-5-fluorophenoxy)-1-methyl-7-((1-methyl-1H-imidazol-4-yl)ethynyl)-1H-indazol-5-yl)-3-fluoro-5-(trifluoromethyl)benzamide], the IC50 is 5000 to 10000 nM in assay [1] and under 1000 nM in assay [2].
The matching figures for `CC(=O)N1CCC(C#Cc2cc(NC(=O)c3cc(F)cc(C(F)(F)F)c3)c(Oc3cc(F)ccc3Cl)c3c(N)nn(C)c23)CC1` [Example 52, N-(7-((1-Acetylpiperidin-4-yl)ethynyl)-3-amino-4-(2-chloro-5-fluorophenoxy)-1-methyl-1H-indazol-5-yl)-3-fluoro-5-(trifluoromethyl)benzamide]: 1000 to 5000 nM and under 1000 nM.
`CNc1nn(C)c2c(Cl)cc(NC(=O)c3cc(F)cc(C(F)(F)F)c3)c(Oc3cc(F)ccc3Cl)c12` [Example 53, N-(7-chloro-4-(2-chloro-5-fluorophenoxy)-1-methyl-3-(methylamino)-1H-indazol-5-yl)-3-fluoro-5-(trifluoromethyl)benzamide]: the IC50 was at least 10000 nM in assay [1] and under 1000 nM in assay [2].
The matching figures for `Nc1nn2c3c(cc(NC(=O)c4cc(F)cc(C(F)(F)F)c4)c(Oc4cc(F)ccc4Cl)c13)CN(C1CC1)C2=O` [Example 71, N-(2-Amino-3-(2-chloro-5-fluorophenoxy)-7-cyclopropyl-8-oxo-7,8-dihydro-6H-pyrazolo[4,5,1-ij]quinazolin-4-yl)-3-fluoro-5-(trifluoromethyl)benzamide]: under 1000 nM and under 1000 nM.
Take `Cn1nc(N)c2c(Oc3cc(F)ccc3Cl)c(NC(=O)c3cc(F)cc(C(F)(F)F)c3)cc(/C=C\C#N)c21` [Example 58, (Z)—N-(3-amino-4-(2-chloro-5-fluorophenoxy)-7-(2-cyanovinyl)-1-methyl-1H-indazol-5-yl)-3-fluoro-5-(trifluoromethyl)benzamide]: the IC50 in assay [1] and in assay [2] was under 1000 nM each time.
On to `Nc1n[nH]c2ccc(NC(=O)c3cc(F)cc(C(F)(F)F)c3)c(Oc3cc(F)ccc3Cl)c12` [Example 1, N-(3-Amino-4-(2-chloro-5-fluorophenoxy)-1H-indazol-5-yl)-3-fluoro-5-(trifluoromethyl)benzamide], for which the IC50 in assay [1] and in assay [2] was under 1000 nM throughout.
